From patent publication US12194021B2, “Modified herbal compositions for neuromodulation” (University of Southern California, priority 2021, dated 2025)

Legend:
TG-mice = experiment: Open field test of locomotor activity; format: in vivo; settings: 3 months
Procedure: 5) Locomotor assay: To measure the locomotor activity, the numbers of total entries were measured for each animal. Statistical differences were determined using ANOVA. These experiments will determine the effects of D-P on anxiety levels.
DHM-Piperidine Complex (D-P) can replicate DHM effects to improve behavioral impairment in TG-mice. We examined the effect of D-P on AD symptom-like behavior in aged TG2576 mice compared with age-matched wt mice. Mice were divided into three groups: (1) C57BL/6 wt male mice (2% sucrose, oral administration), (2) TG-mice (2% sucrose, oral administration), and (3) TG-mice with D-P (2 mg/kg in 2% sucrose), respectively. After 3 months of treatment, mice were examined with behavioral assays.
Locomotor activity was assayed with open field test. Running distance is one of the parameters quantifying locomotor activity (FIG. 4A). Wt control mice ran 882±55 cm during 10 min. TG-mice ran a much shorter distance (255±12 cm), while the running distance of TG-mice treated with D-P increased to 611±99 cm. […] D-P treatment in TG-mice increased rearing (19.3±2.0 times), times to explore the center (1.3±2.0 times), and duration to stay at the center (0.13±0.03 min). […] Daily oral D-P treatment for TG-mice improves locomotor activity and increased exploring activity, an instinct of animals. Anxiety was assayed with the EPM (FIG. 4D). The wt control spent 48.5±7.5% of total time in open arms and 33.5±3.2% in closed arms.

[1] = Two-week Functional Observational Battery (FOB); format: in vivo, rats
Procedure: The results shown in Table 2 indicate that D-P is the safe compound. During the two weeks, we checked the animals' fur, response to handling, etc. […] We also made sure to observe the animals continuously for 4 hours after each treatment. We mainly focused on any negative changes in the animal's mental behavior, autonomous activity, hair, glandular secretion, feces, death, etc. We found no notable changes with these evaluations.

[2] = female rats, 1 mg/kg oral daily, day0
[3] = female rats, 1 mg/kg oral daily, day3
[4] = female rats, 1 mg/kg oral daily, day5
[5] = female rats, 1 mg/kg oral daily, day8
[6] = female rats, 1 mg/kg oral daily, day10
[7] = female rats, 1 mg/kg oral daily, day12
[8] = female rats, 1 mg/kg oral daily, day14
[9] = female rats, 10 mg/kg oral daily, day0
[10] = female rats, 10 mg/kg oral daily, day3
[11] = female rats, 10 mg/kg oral daily, day5
[12] = female rats, 10 mg/kg oral daily, day8
[13] = female rats, 10 mg/kg oral daily, day10
[14] = female rats, 10 mg/kg oral daily, day12
[15] = female rats, 10 mg/kg oral daily, day14
[16] = female rats, 100 mg/kg oral daily, day0
[17] = female rats, 100 mg/kg oral daily, day3
[18] = female rats, 100 mg/kg oral daily, day5
[19] = female rats, 100 mg/kg oral daily, day8
[20] = female rats, 100 mg/kg oral daily, day10
[21] = female rats, 100 mg/kg oral daily, day12
[22] = female rats, 100 mg/kg oral daily, day14
[23] = male rats, 1 mg/kg oral daily, day0
[24] = male rats, 1 mg/kg oral daily, day3
[25] = male rats, 1 mg/kg oral daily, day5
[26] = male rats, 1 mg/kg oral daily, day8
[27] = male rats, 1 mg/kg oral daily, day10
[28] = male rats, 1 mg/kg oral daily, day12
[29] = male rats, 1 mg/kg oral daily, day14
[30] = male rats, 10 mg/kg oral daily, day0
[31] = male rats, 10 mg/kg oral daily, day3
[32] = male rats, 10 mg/kg oral daily, day5
[33] = male rats, 10 mg/kg oral daily, day8
[34] = male rats, 10 mg/kg oral daily, day10
[35] = male rats, 10 mg/kg oral daily, day12
[36] = male rats, 10 mg/kg oral daily, day14
[37] = male rats, 100 mg/kg oral daily, day0
[38] = male rats, 100 mg/kg oral daily, day3
[39] = male rats, 100 mg/kg oral daily, day5
[40] = male rats, 100 mg/kg oral daily, day8
[41] = male rats, 100 mg/kg oral daily, day10
[42] = male rats, 100 mg/kg oral daily, day12
[43] = male rats, 100 mg/kg oral daily, day14
[44] = rats, oral daily 1, 10 and 100 mg/kg, two weeks

## piperidin-1-ium (2R,3R)-2-(3,4-dihydroxy-5-oxidophenyl)-3,5-dihydroxy-4-oxochroman-7-olate [D-P]
TG-mice; 2 mg/kg in 2% sucrose, 10 min, untreated TG 255±12
  running distance: 611±99 cm
TG-mice; 2 mg/kg, untreated TG 0.02±0.01
  duration to stay at the center: 0.13 ± 0.03 min
TG-mice; 2 mg/kg, untreated TG 0.2±0.1
  times to explore the center: 1.3±2.0 times
TG-mice; 2 mg/kg, untreated TG 12.5±2.1
  rearing: 19.3±2.0 times
[1]; [2]
  Breath (B): 85 ± 0.5 per minute
  Pulse (P): 366 ± 1.0 beats/minute
  Temperature (T): 36.5 ± 0.4 °C
[1]; [3]
  Breath (B): 85 ± 0.5 per minute
  Pulse (P): 366 ± 0.4 beats/minute
  Temperature (T): 36.5 ± 0.3 °C
[1]; [4]
  Breath (B): 85 ± 0.4 per minute
  Pulse (P): 366 ± 1.3 beats/minute
  Temperature (T): 36.5 ± 1.1 °C
[1]; [5]
  Breath (B): 85 ± 0.5 per minute
  Pulse (P): 366 ± 4.1 beats/minute
  Temperature (T): 36.5 ± 1.2 °C
[1]; [6]
  Breath (B): 85 ± 0.5 per minute
  Pulse (P): 366 ± 1.0 beats/minute
  Temperature (T): 36.5 ± 0.4 °C
[1]; [7]
  Breath (B): 85 ± 0.5 per minute
  Pulse (P): 366 ± 7.4 beats/minute
  Temperature (T): 36.5 ± 0.3 °C
[1]; [8]
  Breath (B): 85 ± 0.4 per minute
  Pulse (P): 366 ± 6.3 beats/minute
  Temperature (T): 36.5 ± 1.1 °C
[1]; [9]
  Breath (B): 86 ± 0.6 per minute
  Pulse (P): 367 ± 0.5 beats/minute
  Temperature (T): 36.3 ± 0.6 °C
[1]; [10]
  Breath (B): 86 ± 0.5 per minute
  Pulse (P): 371 ± 2.2 beats/minute
  Temperature (T): 36.3 ± 0.7 °C
[1]; [11]
  Breath (B): 86 ± 0.5 per minute
  Pulse (P): 369 ± 6.8 beats/minute
  Temperature (T): 36.3 ± 1.0 °C
[1]; [12]
  Breath (B): 86 ± 0.5 per minute
  Pulse (P): 368 ± 6.1 beats/minute
  Temperature (T): 36.3 ± 1.2 °C
[1]; [13]
  Breath (B): 86 ± 0.6 per minute
  Pulse (P): 366 ± 6.5 beats/minute
  Temperature (T): 36.3 ± 0.6 °C
[1]; [14]
  Breath (B): 86 ± 0.5 per minute
  Pulse (P): 367 ± 9.2 beats/minute
  Temperature (T): 36.3 ± 0.7 °C
[1]; [15]
  Breath (B): 86 ± 0.5 per minute
  Pulse (P): 372 ± 6.8 beats/minute
  Temperature (T): 36.3 ± 1.0 °C
[1]; [16]
  Breath (B): 85 ± 0.6 per minute
  Pulse (P): 366 ± 9.5 beats/minute
  Temperature (T): 36.2 ± 0.7 °C
[1]; [17]
  Breath (B): 85 ± 0.4 per minute
  Pulse (P): 364 ± 0.5 beats/minute
  Temperature (T): 36.2 ± 0.7 °C
[1]; [18]
  Breath (B): 85 ± 0.8 per minute
  Pulse (P): 371 ± 1.5 beats/minute
  Temperature (T): 36.2 ± 0.7 °C
[1]; [19]
  Breath (B): 85 ± 0.6 per minute
  Pulse (P): 367 ± 1.5 beats/minute
  Temperature (T): 36.2 ± 0.9 °C
[1]; [20]
  Breath (B): 85 ± 0.6 per minute
  Pulse (P): 369 ± 9.5 beats/minute
  Temperature (T): 36.2 ± 0.7 °C
[1]; [21]
  Breath (B): 85 ± 0.4 per minute
  Pulse (P): 373 ± 6.5 beats/minute
  Temperature (T): 36.2 ± 0.7 °C
[1]; [22]
  Breath (B): 85 ± 0.8 per minute
  Pulse (P): 371 ± 4.5 beats/minute
  Temperature (T): 36.2 ± 0.7 °C
[1]; [23]
  Breath (B): 84 ± 0.3 per minute
  Pulse (P): 367 ± 2.1 beats/minute
  Temperature (T): 36.1 ± 0.3 °C
[1]; [24]
  Breath (B): 85 ± 0.4 per minute
  Pulse (P): 366 ± 2.5 beats/minute
  Temperature (T): 36.4 ± 0.7 °C
[1]; [25]
  Breath (B): 85 ± 0.5 per minute
  Pulse (P): 366 ± 1.5 beats/minute
  Temperature (T): 36.5 ± 0.5 °C
[1]; [26]
  Breath (B): 85 ± 0.5 per minute
  Pulse (P): 366 ± 1.3 beats/minute
  Temperature (T): 36.4 ± 1.0 °C
[1]; [27]
  Breath (B): 85 ± 0.3 per minute
  Pulse (P): 366 ± 0.2 beats/minute
  Temperature (T): 36.5 ± 0.3 °C
[1]; [28]
  Breath (B): 85 ± 0.5 per minute
  Pulse (P): 366 ± 1.5 beats/minute
  Temperature (T): 36.5 ± 0.5 °C
[1]; [29]
  Breath (B): 85 ± 0.5 per minute
  Pulse (P): 366 ± 1.5 beats/minute
  Temperature (T): 36.5 ± 0.5 °C
[1]; [30]
  Breath (B): 86 ± 0.2 per minute
  Pulse (P): 366 ± 5.2 beats/minute
  Temperature (T): 36.5 ± 0.5 °C
[1]; [31]
  Breath (B): 86 ± 0.6 per minute
  Pulse (P): 370 ± 0.5 beats/minute
  Temperature (T): 36.4 ± 0.6 °C
[1]; [32]
  Breath (B): 86 ± 0.5 per minute
  Pulse (P): 374 ± 0.5 beats/minute
  Temperature (T): 36.5 ± 0.5 °C
[1]; [33]
  Breath (B): 86 ± 0.5 per minute
  Pulse (P): 370 ± 1.9 beats/minute
  Temperature (T): 36.4 ± 1.1 °C
[1]; [34]
  Breath (B): 86 ± 0.2 per minute
  Pulse (P): 372 ± 6.2 beats/minute
  Temperature (T): 36.5 ± 0.5 °C
[1]; [35]
  Breath (B): 86 ± 0.5 per minute
  Pulse (P): 373 ± 4.5 beats/minute
  Temperature (T): 36.5 ± 0.5 °C
[1]; [36]
  Breath (B): 86 ± 0.5 per minute
  Pulse (P): 371 ± 7.5 beats/minute
  Temperature (T): 36.5 ± 0.5 °C
[1]; [37]
  Breath (B): 86 ± 0.5 per minute
  Pulse (P): 371 ± 0.6 beats/minute
  Temperature (T): 36.4 ± 1.0 °C
[1]; [38]
  Breath (B): 86 ± 0.3 per minute
  Pulse (P): 365 ± 8.1 beats/minute
  Temperature (T): 36.3 ± 0.7 °C
[1]; [39]
  Breath (B): 86 ± 0.3 per minute
  Pulse (P): 367 ± 0.9 beats/minute
  Temperature (T): 36.4 ± 0.8 °C
[1]; [40]
  Breath (B): 86 ± 0.5 per minute
  Pulse (P): 365 ± 9.5 beats/minute
  Temperature (T): 36.3 ± 1.5 °C
[1]; [41]
  Breath (B): 86 ± 0.5 per minute
  Pulse (P): 368 ± 8.7 beats/minute
  Temperature (T): 36.4 ± 1.0 °C
[1]; [42]
  Breath (B): 86 ± 0.3 per minute
  Pulse (P): 371 ± 5.9 beats/minute
  Temperature (T): 36.4 ± 0.8 °C
[1]; [43]
  Breath (B): 86 ± 0.3 per minute
  Pulse (P): 369 ± 5.9 beats/minute
  Temperature (T): 36.4 ± 0.8 °C
[1]; [44]
  FOB overall observation: did not find any notable negative changes
  deaths or injuries: No deaths or injuries
